# Laboratory results as given in patent US20260285850A1, “SUBSTITUTED OXAZOLIDINONES AND IMIDAZOLINONES AS HERBICIDES” (FMC CORPORATION, priority 2023, published 2026).
# How the values were obtained:
# Type in all cases: in vivo
# [1] = system: barnyardgrass (Echinochloa crus-galli); experiment: Test A preemergence soil spray, visual injury rating 0-100; conditions: 10 days; for Barnyardgrass plant response rating (0 to 100 scale): 125 g ai/ha
# Description: (§1) Seeds of plant species selected from barnyardgrass (Echinochloa crus-galli), blackgrass (Alopecurus myosuroides), corn (Zea mays), foxtail, giant (giant foxtail, Setaria faberi), green foxtail (Setaria viridis), goosegrass (Eleusine indica), kochia (Bassia scoparia), oat, wild (wild oat, Avena fatua), palmer (palmer amaranth, palmer pigweed, Amaranthus palmeri), ragweed (common ragweed, Ambrosia artemisiifolia), ryegrass, Italian (italian ryegrass, Lolium multiflorum), soybean (Glycine max) and wheat (Triticum aestivum) were planted into a blend of loam soil and sand and treated preemergence with a directed soil spray using test chemicals formulated in a non-phytotoxic solvent mixture which included a surfactant.
# (§2) At the same time, plants selected from these crops and weed species and also galium (catchweed bedstraw, Galium aparine) and horseweed (Erigeron canadensis) were planted in pots containing the same blend of loam soil and sand and treated with postemergence applications of test chemicals formulated in the same manner. Plants ranged in height from 2 to 10 cm and were in the one- to two-leaf stage for the postemergence treatment. Treated plants and untreated controls were maintained in a greenhouse for 10 days, after which time all treated plants were compared to untreated controls and visually evaluated for injury. Plant response ratings, summarized in Table A, are based on a 0 to 100 scale where 0 is no effect and 100 is complete control. A dash (-) response means no test result.
# [2] = system: blackgrass (Alopecurus myosuroides); experiment: as above; conditions: 10 days; for Blackgrass plant response rating (0 to 100 scale): 125 g ai/ha
# Description: as §1, §2
# corn (Zea mays) [3] = experiment: as above; conditions: 10 days; for Corn plant response rating (0 to 100 scale): 125 g ai/ha
# Description: as §1, §2
# kochia (Bassia scoparia) [4] = experiment: as above; conditions: 10 days; for Kochia plant response rating (0 to 100 scale): 125 g ai/ha
# Description: as §1, §2
# [5] = system: oat, wild (wild oat, Avena fatua); experiment: as above; conditions: 10 days; for Oat, Wild plant response rating (0 to 100 scale): 125 g ai/ha
# Description: as §1, §2
# [6] = system: palmer (palmer amaranth, palmer pigweed, Amaranthus palmeri); experiment: as above; conditions: 10 days; for Amaranth, Palmer plant response rating (0 to 100 scale): 125 g ai/ha
# Description: as §1, §2
# [7] = system: ragweed (common ragweed, Ambrosia artemisiifolia); experiment: as above; conditions: 10 days; for Ragweed plant response rating (0 to 100 scale): 125 g ai/ha
# Description: as §1, §2
# [8] = system: ryegrass, Italian (italian ryegrass, Lolium multiflorum); experiment: as above; conditions: 10 days; for Ryegrass, Italian plant response rating (0 to 100 scale): 125 g ai/ha
# Description: as §1, §2
# soybean (Glycine max) [9] = experiment: as above; conditions: 10 days; for Soybean plant response rating (0 to 100 scale): 125 g ai/ha
# Description: as §1, §2
# [10] = system: wheat (Triticum aestivum); experiment: as above; conditions: 10 days; for Wheat plant response rating (0 to 100 scale): 125 g ai/ha
# Description: as §1, §2
# [11] = system: barnyardgrass (Echinochloa crus-galli); experiment: Test A postemergence application, visual injury rating 0-100; conditions: Postemergence
# Description: as §1, §2
# [12] = system: blackgrass (Alopecurus myosuroides); experiment: as above; conditions: Postemergence
# Description: as §1, §2
# corn (Zea mays) [13] = experiment: as above; conditions: Postemergence
# Description: as §1, §2
# [14] = system: galium (catchweed bedstraw, Galium aparine); experiment: as above; conditions: Postemergence
# Description: as §1, §2
# [15] = system: horseweed (Erigeron canadensis); experiment: as above; conditions: Postemergence
# Description: as §1, §2
# kochia (Bassia scoparia) [16] = experiment: as above; conditions: Postemergence
# Description: as §1, §2
# [17] = system: oat, wild (wild oat, Avena fatua); experiment: as above; conditions: Postemergence
# Description: as §1, §2
# [18] = system: palmer (palmer amaranth, palmer pigweed, Amaranthus palmeri); experiment: as above; conditions: Postemergence
# Description: as §1, §2
# [19] = system: ragweed (common ragweed, Ambrosia artemisiifolia); experiment: as above; conditions: Postemergence
# Description: as §1, §2
# [20] = system: ryegrass, Italian (italian ryegrass, Lolium multiflorum); experiment: as above; conditions: Postemergence
# Description: as §1, §2
# soybean (Glycine max) [21] = experiment: as above; conditions: Postemergence
# Description: as §1, §2
# [22] = system: wheat (Triticum aestivum); experiment: as above; conditions: Postemergence
# Description: as §1, §2
# [23] = 31 g ai/ha, 0 = no effect, 100 = complete control
# [24] = 0 = no effect, 100 = complete control
# [25] = 31 g ai/ha, greenhouse 10 days, 0 no effect, 100 complete control
# [26] = 125 g ai/ha, 10 days, 0 is no effect, 100 is complete control
compound,measurement,setting,value
CC1(C(=O)NC2C=CC(C(=O)NS(=O)(=O)C(C)(C)C)C2)CN(c2cc(F)cc(F)c2)C(=O)O1 (stereo not shown) [Compound 80],Barnyardgrass plant response rating (0-100),[1]; [23],0
same,Barnyardgrass plant response rating (0 to 100 scale),[1]; [24],40
same,Blackgrass plant response rating (0-100),[2]; [23],0
same,Blackgrass plant response rating (0 to 100 scale),[2]; [24],30
same,Corn plant response rating (0-100),corn (Zea mays) [3]; [23],0
same,Corn plant response rating (0 to 100 scale),corn (Zea mays) [3]; [24],0
same,Kochia plant response rating (0-100),kochia (Bassia scoparia) [4]; [23],0
same,Kochia plant response rating (0 to 100 scale),kochia (Bassia scoparia) [4]; [24],70
same,"Oat, Wild plant response rating (0-100)",[5]; [23],0
same,"Oat, Wild plant response rating (0 to 100 scale)",[5]; [24],30
same,"Amaranth, Palmer plant response rating (0-100)",[6]; [23],0
same,"Amaranth, Palmer plant response rating (0 to 100 scale)",[6]; [24],50
same,Ragweed plant response rating (0-100),[7]; [23],10
same,Ragweed plant response rating (0 to 100 scale),[7]; [24],0
same,"Ryegrass, Italian plant response rating (0-100)",[8]; [23],0
same,"Ryegrass, Italian plant response rating (0 to 100 scale)",[8]; [24],60
same,Soybean plant response rating (0-100),soybean (Glycine max) [9]; [23],0
same,Soybean plant response rating (0 to 100 scale),soybean (Glycine max) [9]; [24],10
same,Wheat plant response rating (0-100),[10]; [23],0
same,Wheat plant response rating (0 to 100 scale),[10]; [24],50
same,Barnyardgrass plant response rating (0 to 100 scale),[11]; [25],80
same,Barnyardgrass plant response rating (0 to 100 scale),[11]; [26],90
same,Blackgrass plant response rating (0 to 100 scale),[12]; [25],30
same,Blackgrass plant response rating (0 to 100 scale),[12]; [26],70
same,Corn plant response rating (0 to 100 scale),corn (Zea mays) [13]; [25],30
same,Corn plant response rating (0 to 100 scale),corn (Zea mays) [13]; [26],100
same,Galium plant response rating (0 to 100 scale),[14]; [25],80
same,Galium plant response rating (0 to 100 scale),[14]; [26],80
same,Horseweed plant response rating (0 to 100 scale),[15]; [25],10
same,Horseweed plant response rating (0 to 100 scale),[15]; [26],70
same,Kochia plant response rating (0 to 100 scale),kochia (Bassia scoparia) [16]; [25],70
same,Kochia plant response rating (0 to 100 scale),kochia (Bassia scoparia) [16]; [26],80
same,"Oat, Wild plant response rating (0 to 100 scale)",[17]; [25],90
same,"Oat, Wild plant response rating (0 to 100 scale)",[17]; [26],90
same,"Amaranth, Palmer / Pigweed, Palmer plant response rating (0 to 100 scale)",[18]; [25],50
same,"Amaranth, Palmer / Pigweed, Palmer plant response rating (0 to 100 scale)",[18]; [26],70
same,Ragweed plant response rating (0 to 100 scale),[19]; [25],0
same,Ragweed plant response rating (0 to 100 scale),[19]; [26],40
same,"Ryegrass, Italian plant response rating (0 to 100 scale)",[20]; [25],70
same,"Ryegrass, Italian plant response rating (0 to 100 scale)",[20]; [26],80
same,Soybean plant response rating (0 to 100 scale),soybean (Glycine max) [21]; [25],70
same,Soybean plant response rating (0 to 100 scale),soybean (Glycine max) [21]; [26],80
same,Wheat plant response rating (0 to 100 scale),[22]; [25],60
same,Wheat plant response rating (0 to 100 scale),[22]; [26],90
CCS(=O)(=O)NC(=O)C1C=CC(NC(=O)C2(C)CN(c3cc(F)cc(F)c3)C(=O)O2)C1 (stereo not shown) [Compound 81],Barnyardgrass plant response rating,"[1]; 31 g ai/ha, 0 to 100 scale",90
same,Barnyardgrass plant response rating (0 to 100 scale),[1]; [24],90
same,Blackgrass plant response rating,"[2]; 31 g ai/ha, 0 to 100 scale",30
same,Blackgrass plant response rating (0 to 100 scale),[2]; [24],70
same,Corn plant response rating,"corn (Zea mays) [3]; 31 g ai/ha, 0 to 100 scale",0
same,Corn plant response rating (0 to 100 scale),corn (Zea mays) [3]; [24],80
same,Kochia plant response rating,"kochia (Bassia scoparia) [4]; 31 g ai/ha, 0 to 100 scale",70
same,Kochia plant response rating (0 to 100 scale),kochia (Bassia scoparia) [4]; [24],90
same,"Oat, Wild plant response rating","[5]; 31 g ai/ha, 0 to 100 scale",40
same,"Oat, Wild plant response rating (0 to 100 scale)",[5]; [24],70
same,"Amaranth, Palmer (Pigweed, Palmer) plant response rating","[6]; 31 g ai/ha, 0 to 100 scale",50
same,"Amaranth, Palmer plant response rating (0 to 100 scale)",[6]; [24],90
same,Ragweed plant response rating,"[7]; 31 g ai/ha, 0 to 100 scale",20
same,Ragweed plant response rating (0 to 100 scale),[7]; [24],10
same,"Ryegrass, Italian plant response rating","[8]; 31 g ai/ha, 0 to 100 scale",60
same,"Ryegrass, Italian plant response rating (0 to 100 scale)",[8]; [24],80
same,Soybean plant response rating,"soybean (Glycine max) [9]; 31 g ai/ha, 0 to 100 scale",10
same,Soybean plant response rating (0 to 100 scale),soybean (Glycine max) [9]; [24],70
same,Wheat plant response rating,"[10]; 31 g ai/ha, 0 to 100 scale",40
same,Wheat plant response rating (0 to 100 scale),[10]; [24],90
same,Barnyardgrass plant response rating (0 to 100 scale),[11]; [25],90
same,Barnyardgrass plant response rating (0 to 100 scale),[11]; [26],90
same,Blackgrass plant response rating (0 to 100 scale),[12]; [25],0
same,Blackgrass plant response rating (0 to 100 scale),[12]; [26],50
same,Corn plant response rating (0 to 100 scale),corn (Zea mays) [13]; [25],60
same,Corn plant response rating (0 to 100 scale),corn (Zea mays) [13]; [26],100
same,Galium plant response rating (0 to 100 scale),[14]; [25],80
same,Galium plant response rating (0 to 100 scale),[14]; [26],80
same,Horseweed plant response rating (0 to 100 scale),[15]; [25],30
same,Horseweed plant response rating (0 to 100 scale),[15]; [26],70
same,Kochia plant response rating (0 to 100 scale),kochia (Bassia scoparia) [16]; [25],80
same,Kochia plant response rating (0 to 100 scale),kochia (Bassia scoparia) [16]; [26],90
same,"Oat, Wild plant response rating (0 to 100 scale)",[17]; [25],80
same,"Oat, Wild plant response rating (0 to 100 scale)",[17]; [26],90
same,"Amaranth, Palmer / Pigweed, Palmer plant response rating (0 to 100 scale)",[18]; [25],70
same,"Amaranth, Palmer / Pigweed, Palmer plant response rating (0 to 100 scale)",[18]; [26],70
same,Ragweed plant response rating (0 to 100 scale),[19]; [25],20
same,Ragweed plant response rating (0 to 100 scale),[19]; [26],50
same,"Ryegrass, Italian plant response rating (0 to 100 scale)",[20]; [25],50
same,"Ryegrass, Italian plant response rating (0 to 100 scale)",[20]; [26],70
same,Soybean plant response rating (0 to 100 scale),soybean (Glycine max) [21]; [25],30
same,Soybean plant response rating (0 to 100 scale),soybean (Glycine max) [21]; [26],50
same,Wheat plant response rating (0 to 100 scale),[22]; [25],90
same,Wheat plant response rating (0 to 100 scale),[22]; [26],90
